# Data as given in patent US5462861A, “Method for improving enzyme activities with noble gases” (American Air Liquide, Chicago Research Center, priority 1993, dated 1995).
# Entries after “also recorded” stand apart in the source; their conditions may differ.
# Experiments:
# [1] = system: Aspartate aminotransferase; assay: Aspartate aminotransferase activity under gas; format: biochemical; settings: for effect on aspartate aminotransferase: FIG. 30; for effect: minus = inhibition
# Experimental: (§1) Solution preparation: Optimized w/v solutions are prepared by diluting the enzyme (units/ml) and the substrate (μg/ml) in appropriate buffer (optimized pH and molarity for enzymes). The solutions are used for gas experiments at once to avoid loss of activity. Various enzyme and substrate concentrations and inhibitors may be employed. Physical parameters are varied as required.
# (§2) Preparation of samples: Cuvets are filled with 2 ml of substrate solution by means of a gas-tight syringe. Gas-tight serum vials are filled with enzyme and solvent. Sufficient gas is consecutively bubbled in the cuvets and serum vials, with a 1-hr wait between injections to maximize equilibration of gas. All syringes and dead spaces are purged before filling with the appropriate gas. The amount of gas used has been measured sufficient to saturate the solution required.
# (§3) Spectrophotometric time-drive, reaction rate, and kinetic analyses: cuvets and serum vials are saturated with gas 40 minutes before the run. A gas-filled syringe is used to retrieve 0.5 ml of enzyme solution to avoid air contact. The 0.5 ml syringe injections of enzyme are made simultaneously to effect a common starting time to for the samples. 7 gases (air, O2, N2, Ne, Ar, Kr, Xe) are run at various temperatures each (from 0° to 60° ). Changes in the rate or final equilibrium of the reaction versus ambient air are recorded. Comparison is also made with added oxygen, and with deoxygenation. Some samples are also prepared under pressure.
# Tyrosinase [2] = assay: Tyrosinase-L-tyrosine reaction, solution saturated with gas; format: biochemical, Mushroom; settings: for effect: optimal reaction conditions, simple saturation of solution with gas, minus = inhibition; for temperature dependence of the effect on tyrosinase: various temperatures (15-35° C.); for effect on rate and final equilibrium of the tyrosinase-L-tyrosine reaction: various temperatures
# Experimental: as §1, §2, §3
# 1. Solution preparation: 10% w/v solutions are prepared by diluting the enzyme (units/ml) and the substrate (μg/ml) in Sodium Phosphate buffer (pH 6.85, optimized pH for enzymes). The solutions are stored in refrigerator (0°-5° C.) and used for gas experiments within 2 or 3 days to avoid loss of activity.
# 6. Preparation of run samples: Acrylic cuvets are filled with 2 ml of substrate solution by means of a gas tight syringe. Gastight serum vials are filled with enzyme. 3×10 cc of gas are consecutively bubbled in the cuvets and serum vials, with a […] between injections. This represents a 10× displacement of dead volume while maximizing equilibration of gas. All syringes and dead spaces are purged before filling with the appropriate gas. After the third 10 cc injection, the cuvets and serum vials are left overnight under two 10 cc syringes filled with the appropriate gas in refrigerator at 0°-5° C.
# 8. Spectrophotometric runs: The cuvets and serum vials are filled with 10 cc of gas 40 min before the run. A gas-filled syringe is used to retrieve 0.5 ml of enzyme solution to avoid air contact. The 0.5 ml syringe injections of enzyme are made simultaneously to effect a common starting time t0 for the samples. Seven gases (air, O2, N2, Ne, Ar, Kr, Xe) are run at five temperatures each (15° C., 20° C., 25° C., 30° C., 35° C.). Changes in the rate or final equilibrium of the reaction versus ambient air are recorded.
# The optimal conditions are [E]/[S] (100 μg/ml)/(100 μg/ml), the changes in absorbance being observed at 305 nm.
# 3×10 cc of gas are bubbled in the silicone-sealed cuvets and serum vials (T-3754, T-7755), with an interval of 20 min (at 0°-5°C.) between each gas injection.
# a. The silicone-sealed cuvets are removed from the refrigerator 40 min before the experimental run, filled with 10 cc of gas and left at room temperature (26° C.) under two 10 cc syringes.
# The 0.5 ml syringe injections of enzyme are made simultaneously to effect a common starting time t0 for the samples.
# 200 points, 18 s intervals 1 hr run
# citrate synthetase = target: T1, citrate synthetase (Homo sapiens, UniProt O75390); assay: Citrate synthetase complex reaction under gas; format: biochemical; settings: for effect on citrate synthase: FIG. 33
# T1 sequence (O75390 28-466): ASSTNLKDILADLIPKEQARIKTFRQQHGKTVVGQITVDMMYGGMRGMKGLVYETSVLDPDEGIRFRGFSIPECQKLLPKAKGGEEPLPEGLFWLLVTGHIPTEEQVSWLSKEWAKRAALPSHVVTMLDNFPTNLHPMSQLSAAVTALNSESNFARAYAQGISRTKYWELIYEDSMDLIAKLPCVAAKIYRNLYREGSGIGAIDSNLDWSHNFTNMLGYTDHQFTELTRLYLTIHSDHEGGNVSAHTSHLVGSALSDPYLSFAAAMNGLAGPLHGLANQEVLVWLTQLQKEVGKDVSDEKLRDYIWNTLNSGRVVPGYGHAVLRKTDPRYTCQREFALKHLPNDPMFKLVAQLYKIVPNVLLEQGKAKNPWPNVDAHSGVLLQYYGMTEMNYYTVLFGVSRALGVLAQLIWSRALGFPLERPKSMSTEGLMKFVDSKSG
# Experimental: as §1, §2, §3
# (§4) In a complete experiment, an enzyme at optimal pH and buffering salt concentration is reacted with 5 substrate concentrations in solution with noble gas at 1 atm. […] Controls are also run after evacuation of solution by vacuum. The reaction is monitored colorimetrically in a scanning spectrophotometer in real time, and the signals are treated mathematically to obtain rate and yield differences. Sample numbers are constant and sufficient to ensure significance of results. All parameters are independently controlled and measured, and more complex experiments are occasionally carried out.
# Acetyl S-CoA synthetase = Acetyl S-CoA synthetase activity under gas (coupled sequence or isolated reaction); format: biochemical; settings: for Maximum observed enhancement / maximum observed inhibition: depending upon temperature
# Experimental: as §1, §2, §3
# Maximum observed enhancement vs maximum observed inhibition (depending upon temperature):
# In a coupled complex reaction sequence including hydrolytic enzymes: […]
# Tyrosinase [3] = assay: Gas mixture experiment, tyrosinase; format: biochemical, Mushroom; settings: inhibition vs. air control, 25° C.
# Experimental: In addition to mixes of noble gases with nitrogen and oxygen, and of mixes of Kr and Xe, serial mixes of Ar and either Xe or Kr were tested. Results for tyrosinase expressed as inhibition vs. air control: Apr. 18, 1991: Gas mix prep: 120 cc serum vials were used to mix the gassed in. These vials were purged using vacuum while 1 atm of argon was maintained in the vial. The vials were purged for 20 seconds in this manner. The vials were under slight pressure which was released through a needle. This is considered 120 cc of Argon. The necessary volumes of Argon and the gas to be mixed with (Xe or Kr) were then introduced into the vials using a 30 cc syringe and needle. We gassed the enzyme using 1 vial of gas mix using 8×10 cc of gas out of the vial. We gassed the cuvette/substrate using a second vial of gas mix using 8×10 cc of gas out of the vial. Argon and Xenon were retrieved from the gas cylinders. […] We determined that we would be unable to retrieve 8×10 cc of gas mix from 1 vial. […] We prepared the Ar/Kr mixes as described above and did 2 replicates of the 10% and 50% mixes.
# Beta-D-glucosidase = Beta-D-glucosidase activity under gas; format: biochemical; settings: for effect: plus = enhancement
# Experimental: as §1, §2, §3, §4
# [4] = coupled complex reaction sequence including hydrolytic enzymes
SMILES,effect on aspartate aminotransferase [1],effect [1] [%],effect on tyrosinase-L-tyrosine reaction (Tyrosinase [2]; 15° C.),effect on tyrosinase-L-tyrosine reaction (Tyrosinase [2]; 25° C.),effect (Tyrosinase [2]; 25° C.) [%],effect on citrate synthetase complex reaction (citrate synthetase; 10° C.),effect on citrate synthetase complex reaction (citrate synthetase; 25° C.),effect on citrate synthetase complex reaction (citrate synthetase; 35° C.),effect on citrate synthase (citrate synthetase),Maximum observed enhancement (Acetyl S-CoA synthetase; [4]),maximum observed inhibition (Acetyl S-CoA synthetase; [4]) [%],Maximum observed enhancement (Acetyl S-CoA synthetase; isolated reaction),maximum observed inhibition (Acetyl S-CoA synthetase; isolated reaction) [%],effect (Beta-D-glucosidase),further results
"[Xe] [Xe, xenon]",inhibition,-17,"small, but significant inhibitory effect; also recorded: small but significant inhibitory effect",inhibitory effect,-73,+18,0,+32,enhancement,+18.3%,-25.0,+15.4%,-39.5,+40%,"effect on tyrosinase-L-tyrosine reaction (Tyrosinase [2]; 20° C.): inhibits the tyrosinase-L-tyrosine reaction quite strongly; also recorded: dramatically inhibit; also recorded: inhibiting effects; effect on tyrosinase (Tyrosinase [2]; 26° C.): very large inhibition; also recorded: optimal inhibition curve; area of run curve (Tyrosinase [2]; 26° C., FIG. 6): ~3037 μ; inhibition of air rate (Tyrosinase [2]; 26° C., FIG. 6, estimated from curve areas): ~72.92%; total area as % of air area (Tyrosinase [2]; 26° C., FIG. 6, 60 min): ~27.08%; % total area (Tyrosinase [2]; 26° C., FIG. 6, total = air + xenon areas): ~21.31; effect on tyrosinase-L-tyrosine reaction (Tyrosinase [2]; 30° C., listed as Xenon): inhibits the reaction much better than other gases; effect on tyrosinase-L-tyrosine reaction (Tyrosinase [2]; 30° C., listed as xenon): inhibitory effect; effect on tyrosinase (Tyrosinase [2]; equal w/w, FIG. 5): inhibition; temperature dependence of the effect on tyrosinase (Tyrosinase [2]; listed as Xenon): interacts inversely with temperature; temperature dependence of the effect on tyrosinase (Tyrosinase [2]; listed as xenon): at least two activity transitions; also recorded: large difference in xenon activity between 20 °C and 25 °C; also recorded: interacts inversely with temperature; also recorded: large difference in xenon activity between 20° and 25 °C; effect on rate and final equilibrium of the tyrosinase-L-tyrosine reaction (Tyrosinase [2]; listed as Xenon): significantly inhibits the rate and depresses the final equilibrium; effect on rate and final equilibrium of the tyrosinase-L-tyrosine reaction (Tyrosinase [2]; listed as xenon): inhibits the equilibrium of the tyrosinase-L-tyrosine reaction better than other gases; also recorded: inhibition; % inhibited (Tyrosinase [3]; Mix = % Xe in AR): -86%; enhancement (Beta-D-glucosidase; with the addition of different competing substrates): up to 200%"
"[Kr] [Kr, krypton]",inhibition,-82,strong effects; also recorded: large inhibitory effect,inhibitory effect,-73,+37,+6,+32,enhancement,+16.1%,-34.6,+5.0%,-52.6,+14%,"effect on tyrosinase-L-tyrosine reaction (Tyrosinase [2]; 20° C., listed as Krypton): lesser inhibitory effect; effect on tyrosinase-L-tyrosine reaction (Tyrosinase [2]; 20° C., listed as krypton): effective inhibitors; also recorded: almost of equal effect; also recorded: lesser effect; also recorded: inhibiting effects; effect on tyrosinase-L-tyrosine reaction (Tyrosinase [2]; 30° C.): inhibitory effect; effect on rate and final equilibrium of the tyrosinase-L-tyrosine reaction (Tyrosinase [2]): inhibition; temperature dependence of the effect on tyrosinase (Tyrosinase [2]): direct inverse (negative) relationship; also recorded: activity transition occuring between 20 °C and 25 °C; effect on S-acetyl CoA synthetase (Acetyl S-CoA synthetase; 25° C., FIG. 36): enhancement; % inhibited (Tyrosinase [3]; Mix = % Kr in Ar): -77%"
